These results are taken from patent US12600713B2, “Crystalline forms of 6-((6,7-dimethoxyquinazolin-4-yl)oxy)-N,2-dimethylbenzofuran-3-carboxamide” (HUTCHMED LIMITED, priority 2014, dated 2026).

The data set in a line: Stability of Form I under high temperature, high humidity and illumination conditions (influence factor experiment, 10 days). Format: physicochemical. On the procedure:
Determination method: the test sample of Form I prepared in Example 1 was added to a culture dish, which was uncovered and put in a sealed clean container; then the container was placed under the conditions of the temperature of 60° C., the temperature of 25° C. and the relative humidity of 92.5%±5%, and the illumination of 4500 lx±500 lx respectively for 10 days; then sampled, investigated the purity and crystalline form of the sample, and compared the results of the investigation, which were shown in the following table.

Consider `CNC(=O)c1c(C)oc2cc(Oc3ncnc4cc(OC)c(OC)cc34)ccc12` [Form I, 6-((6,7-dimethoxyquinazolin-4-yl)oxy)-N,2-dimethylbenzofuran-3-carboxamide], for which the “Purity A%” value is 98.94 A% (0 day (initial sample, Form I of Example 1)); 98.94 A% (25° C., relative humidity 92.5 ± 5% RH, open dish, 10 days); 98.94 A% (60° C., open dish, 10 days); 98.94 A% (illumination 4500 lx ± 500 lx, open dish, 10 days). Also, the “chemical purity and crystalline form after storage (stability conclusion)” value (high temperature, high humidity and illumination conditions for 10 days) is listed as “not changed”.
